Measurements from patent publication US11969436B2, “Method for treating skin irritation caused by parabens” (Kao Corporation, priority 2017, dated 2024).

How the values were obtained:
CES1 = CES1 mRNA expression in normal human epidermal keratinocytes (real-time PCR, ΔΔ CT method); assay type: cell-based; conditions: 48 hours; for Relative gene expression level (with non treat as 1.0): CES1 mRNA, mean value ± SD, n = 3
Procedure: Normal human epidermal keratinocytes (Life Technologies Japan Ltd.) were seeded into a 6-well plate so that the number of cells in each well was […], and cultured in HuMedia-KG2 (KURABO INDUSTRIES LTD.) overnight. Then, an extract of broccoli sprouts (Broccoli Sprout Extract, Oryza Oil (. Fat Chemical Co., Ltd., for cosmetics) was added to the culture medium at a solid concentration of 0.0001 w/v % or 0.001 w/v %, and the cells were cultured for 48 hours. The ceils after culture was washed with D-PB3 (−) and RNA was extracted using RNeasy Mini Kits (QIAGEN) according to the manual attached. The RNA concentration was calculated by using NanoDrop 1000 (Thermo Fisher Scientific). Total RNA extracted was reverse-transcribed using High-Capacity RNA-to-cDNA Kit (Life Technologies Japan Ltd.), and then real-time PCR was performed using 7500 Fast Real-Time PCR System (Life Technologies Japan Ltd.). In the real-time PCR, the expression levels of CES1 mRNA were compared by the ΔΔ CT method using the above reverse transcribed cDNA and CES1, or, as an endogenous control, Tsqman primer for RPLP0 (Life Technologies Japan Ltd., CES1:Hs00275627-m1, RPLP0:HS00420695_gH), Taqma.n Gene Expression Master Mix (Life Technologies Japan Ltd.).
Normal human epidermal keratinocytes (Life Technologies Japan Ltd.) were seeded into a 6-well plate so that the number of cells in each well was […] and cultured in HuMedia-KG2 (KURABO INDUSTRIES LTD.) overnight. Then, suiforaphane (Sigma-Aldrich) was exposed to the cells so that the final concentration was 0.1, 1, and 10 μM, and the cells were cultured for 48 hours. The cells after culture was washed with a phosphate buffer (D-PBS (−)) and RNA was extracted using RNeasy Mini Kits (QIAGEN) according to the manual attached. The RNA concentration was calculated by using NanoDrop 1000 (Thermo Fisher Scientific). Total RNA extracted was reverse-transcribed using High-Capacity RNA-to-cDNA Kit (Life Technologies Japan Ltd.), and then real-time PCR was performed using 7500 Fast Real-Time PCR System (Life Technologies Japan Ltd.). In the real-time PCR, the expression levels of the gene were compared by the ΔΔ CT method using the above reverse transcribed cDNA and carboxylesterase 1, or, as an endogenous control, Taqman primer for RPLP0 (Life Technologies Japan Ltd., CES1:Hs00275627-m1, RPLP0:HS00420895_gH), Taqman Gene Expression Master Mix (Life Technologies Japan Ltd.).

[1] = system: skin of subjects with sensitive skin; experiment: Stinging test A, sensory irritation on the cheek of subjects with sensitive skin; assay type: in vivo, human; conditions: nonwoven fabric with 600 μL of 16.4 mM aqueous solution on the cheek, 30 seconds to 5 minutes; FIG. 2
Procedure: Those who met all of the following criteria were selected as subjects with sensitive skin.
The subjects selected were tested for Stinging test A according to the following method.
After washing face with a make-up remover and a face wash, conditioning was performed in an environment of a temperature of 23° C. and a humidity of 50% for 5 minutes or more. A 2 cm×5 cm piece of nonwoven fabric which was impregnated with 600 μL of a 16.4 mM aqueous solution of methyl p-hydroxybenzoate or p-hydroxybenzoic acid was contacted to the cheek. For sensory irritation that the subjects felt (sore, stinging, pricking, smart, hot, flushed) 30 seconds, 1 minute, 2 minutes, 3 minutes, and 5 minutes after the start of the contact, the subjects submitted scores (0: nothing felt, 0.5: slightly felt or slight discomfort, 1.0: a little discomfort, 1.5: a little to moderate discomfort, 2.0: moderate discomfort, 2.5: moderate to much discomfort, 3.0: much or unbearable discomfort). A value obtained by subtracting, from the highest score of all the scores after 30 seconds to 5 minutes, the highest score in a test performed in the same manner as above except for using distilled water was determined as the sensory irritation score, and the sensory irritation score was statistically analyzed by the Nilcoxon signed-rank test.

[2] = system: three-dimensional cultured human epidermis model; experiment: IL-1α production in three-dimensional cultured human epidermis model (LabCyte EPI-MODEL 24); assay type: cell-based; conditions: 50 μL of 16.4 mM aqueous solution, cultured 6 hours, post-cultured 18 hours; FIG. 1
Procedure: LabCyte EPI-MODEL 24 (made by Japan Tissue Engineering Co., Ltd.) was used as a three-dimensional cultured human epidermis model. The culture insert was pre-cultured (5% CO2, 37° C.) in a 500 μL exclusive assay medium overnight, and the culture insert was transferred to a 24-well plate containing a fresh assay medium. 50 μL of a 16.4 mM aqueous solution of methyl p-hydroxybenzoate (MP) or p-hydroxybenzoic acid (PHBA) was added to the epidermal tissue in the culture insert, and the tissue was cultured for 6 hours. Then the culture insert was washed with phosphate buffer 10 times, and transferred to a 24-well plate containing a fresh assay medium, and post-cultured for 18 hours. After the post-culture, the amount of IL-1α in the medium was determined using Human IL-1 alpha/IL-1F1 Quantikine ELISA Kit (R&D Systems) according to the protocol attached.

Structure (SMILES)	Relative gene expression level (with non treat as 1.0) (CES1; sulforaphane 0.1 μM)	Relative gene expression level (with non treat as 1.0) (CES1; sulforaphane 1 μM)	Relative gene expression level (with non treat as 1.0) (CES1; sulforaphane 10 μM)	expression level of CES1 mRNA (CES1; sulforaphane 0.1, 1 and 10 μM, summary of Table 1)	sensory irritation score [1]	amount of IL-1α in the medium [2]
C[S+]([O-])CCCCN=C=S (stereo not shown) [Sulforaphane, 4-(methylsulfinyl)butyl isothiocyanate]	1.5 ± 0.33	3.6 ± 0.90	35 ± 8.4	increased the expression level of CES1 mRNA		
O=C(O)c1ccc(O)cc1 [PHBA, p-hydroxybenzoic acid]					very mild	much smaller than that when MP was used
COC(=O)c1ccc(O)cc1 [MP, methyl p-hydroxybenzoate]					felt some irritation	
